Key:
[1] = molecular target: T1, HDAC1 (Homo sapiens, UniProt Q13547); experiment: In vitro HDAC inhibition preincubation assay (ZMAL substrate)
[2] = molecular target: T2, HDAC3 (Homo sapiens, UniProt O15379); experiment: Binding kinetics via the Progression Method; assay type: biochemical; conditions: relationship between kobs and [I]; triplicates
[3] = physchem; conditions: 1-octanol/PBS buffer (mutually saturated), pH 7.4
[4] = molecular target: T2, HDAC3; experiment: 100-fold Jump-Dilution experiments; assay type: biochemical; conditions: diluted inhibitor concentration as indicated per compound, vehicle [DMSO 1%] = 56.7
[5] = molecular target: HDAC3/NcoR2 (Homo sapiens, UniProt O15379); experiment: In vitro HDAC inhibition preincubation assay (ZMAL substrate)
[6] = molecular target: T2, HDAC3; experiment: IC50-shift experiments (varied preincubation time); assay type: biochemical; conditions: triplicates
[7] = molecular target: HDAC2 (Homo sapiens, UniProt Q92769); experiment: In vitro HDAC inhibition preincubation assay (ZMAL substrate)
[8] = molecular target: T1, HDAC1; experiment: 100-fold Jump-Dilution experiments; assay type: biochemical; conditions: diluted inhibitor concentration as indicated per compound, vehicle [DMSO 1 %]=111.9
[9] = molecular target: T1, HDAC1; experiment: Binding kinetics via the Progression Method; assay type: biochemical; conditions: relationship between kobs and [I]; triplicates
[10] = molecular target: T1, HDAC1; experiment: IC50-shift experiments (varied preincubation time); assay type: biochemical; conditions: triplicates

T1 sequence (Q13547 whole entry): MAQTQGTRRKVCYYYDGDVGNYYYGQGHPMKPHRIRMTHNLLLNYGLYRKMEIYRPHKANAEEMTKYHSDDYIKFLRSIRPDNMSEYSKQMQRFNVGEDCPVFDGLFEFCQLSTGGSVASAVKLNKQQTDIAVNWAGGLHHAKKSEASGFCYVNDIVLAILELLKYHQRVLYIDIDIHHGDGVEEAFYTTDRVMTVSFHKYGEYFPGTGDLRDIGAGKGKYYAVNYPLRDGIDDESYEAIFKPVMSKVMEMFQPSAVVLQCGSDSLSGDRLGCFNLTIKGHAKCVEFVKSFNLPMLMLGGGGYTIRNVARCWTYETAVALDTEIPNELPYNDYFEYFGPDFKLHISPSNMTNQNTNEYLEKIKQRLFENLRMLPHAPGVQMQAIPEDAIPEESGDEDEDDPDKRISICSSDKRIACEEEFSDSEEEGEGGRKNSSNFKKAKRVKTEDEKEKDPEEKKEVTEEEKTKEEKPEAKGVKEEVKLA
T2 sequence (O15379 whole entry): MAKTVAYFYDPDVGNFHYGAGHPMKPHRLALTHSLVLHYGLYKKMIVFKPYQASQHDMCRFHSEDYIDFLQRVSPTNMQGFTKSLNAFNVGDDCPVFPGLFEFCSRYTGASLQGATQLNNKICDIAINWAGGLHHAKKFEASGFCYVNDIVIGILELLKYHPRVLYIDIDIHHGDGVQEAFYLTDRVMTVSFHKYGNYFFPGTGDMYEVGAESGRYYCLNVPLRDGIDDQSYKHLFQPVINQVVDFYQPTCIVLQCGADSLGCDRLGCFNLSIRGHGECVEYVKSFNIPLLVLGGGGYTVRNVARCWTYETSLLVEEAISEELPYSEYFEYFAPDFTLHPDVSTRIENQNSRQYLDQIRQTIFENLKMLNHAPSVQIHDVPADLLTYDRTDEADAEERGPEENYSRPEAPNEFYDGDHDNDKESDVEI
T2 sequence (Q9Y618 395-489 partner limits assumed): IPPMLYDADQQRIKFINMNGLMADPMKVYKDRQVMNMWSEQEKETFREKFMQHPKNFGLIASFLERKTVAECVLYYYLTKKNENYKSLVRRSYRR
HDAC3/NcoR2, sequence (O15379 whole entry): as the sequence (O15379 whole entry) above
HDAC3/NcoR2, sequence (Q9Y618 395-489 partner limits assumed): as the sequence (Q9Y618 395-489 partner limits assumed) above
HDAC2, sequence (Q92769 whole entry): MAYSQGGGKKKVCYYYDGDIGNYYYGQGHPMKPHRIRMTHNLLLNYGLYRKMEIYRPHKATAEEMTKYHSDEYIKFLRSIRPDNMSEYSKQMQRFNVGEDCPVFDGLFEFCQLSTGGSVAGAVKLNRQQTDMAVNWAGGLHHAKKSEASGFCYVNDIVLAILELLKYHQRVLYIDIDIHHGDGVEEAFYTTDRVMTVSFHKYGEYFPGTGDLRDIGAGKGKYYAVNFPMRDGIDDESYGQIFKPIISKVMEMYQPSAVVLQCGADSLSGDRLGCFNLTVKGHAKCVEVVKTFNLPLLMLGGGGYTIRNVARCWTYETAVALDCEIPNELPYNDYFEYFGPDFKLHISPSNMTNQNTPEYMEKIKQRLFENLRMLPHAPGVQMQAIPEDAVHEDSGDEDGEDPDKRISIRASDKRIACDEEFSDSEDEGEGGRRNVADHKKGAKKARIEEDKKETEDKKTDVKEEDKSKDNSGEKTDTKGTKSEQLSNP

IC50 [1]: 68.6 ± 10.4 nM | binding mechanism at HDAC3 [2]: slow-binding Mechanism II | logD at 48 h [3]: 3.19 | Final slope of progression curve after 100-fold dilution (HDAC3) [4]: 2.51 RFU*min-1 | IC50 [5]: 310 ± 7.8 nM | IC50 ([6]; HDAC3 IC50, preincubation 5 min, preincubation time 5 min at 20°C): 794 nM | IC50 ([6]; HDAC3 IC50, preincubation 30 min, preincubation time 30 min at 20°C): 432 nM | IC50 ([6]; HDAC3 IC50, preincubation 60 min, preincubation time 60 min at 20°C): 299 nM | IC50 ([6]; HDAC3 IC50, preincubation 120 min, preincubation time 120 min at 20°C): 171 nM | IC50 [7]: 128 ± 14.5 nM | Final slope of progression curve after 100-fold dilution (HDAC1) [8]: 39.2 RFU*min^−1 | binding mechanism at HDAC1 [9]: slow‐binding Mechanism II | IC50 ([10]; HDAC1 IC50, preincubation 5 min, preincubation time 5 min at 20°C): 93 nM | IC50 ([10]; HDAC1 IC50, preincubation 30 min, preincubation time 30 min at 20°C): 57.4 nM | IC50 ([10]; HDAC1 IC50, preincubation 60 min, preincubation time 60 min at 20°C): 48.3 nM | IC50 ([10]; HDAC1 IC50, preincubation 120 min, preincubation time 120 min at 20°C): 35.6 nM
Compound: CN(C)c1ccc(C(=O)N(CC(=O)NCc2ccccc2)Cc2ccc(C(=O)Nc3ccccc3N)cc2)cc1 [VK‐1, reference compound]

Source: article PMC9303312, “Balancing Histone Deacetylase (HDAC) Inhibition and Drug‐likeness: Biological and Physicochemical Evaluation of Class I Selective HDAC Inhibitors” (Chemmedchem, 2022)
